{"source": "patent US20260306460A1", "about": "“COMPOSITION FOR REMOVING AND INHIBITING SENESCENT CELLS, AND USES THEREOF” (LIFECEUTIX CO., LTD., priority 2023, published 2026)", "key": {"proliferating A549 cells": {"system": "proliferating A549 cells", "assay": "Survival of proliferating A549 cells treated with supernatant from death-induced cancer cells, Example 14", "format": "cell-based, human", "conditions": "for viability at 30 µM: Homo sapiens", "experimental": "(§1) In the same way as Examples 12 and 13, senescence of cancer (A549) cells was induced by treatment with doxorubicin or the control group (DMSO), and the cells were cultured. The cells were treated with LX-405 at a concentration of 30 μM. 3 days later, cell viability was measured using CellTiter-Glo Luminescent Cell Viability Assay (Promega) or an optical microscope. In the same manner as in Example 13, the medium supernatants comprising secreted fluid from normally proliferating and senescent cancer cells was obtained. Normally proliferating and senescent-induced cancer cells were treated with the medium supernatants."}, "senescent A549 cells": {"system": "senescent A549 cells", "assay": "Survival of senescent A549 cells treated with supernatant from death-induced cancer cells, Example 14", "format": "cell-based, human", "conditions": "for viability at 30 µM: Homo sapiens", "experimental": "as §1\nFurthermore, other test compounds were used in the same manner in Example 12 above at high concentrations of 30 μM, 90 μM, and 270 μM, respectively, and the cultured medium supernatant comprising secreted fluid from aged cancer cells that were killed were obtained. As a result of measuring the degree of death of aged cancer cells, it was confirmed that aged cancer cells can be effectively removed, as shown in Example 12."}, "[1]": {"system": "doxorubicin-induced aged C57BL6J mice", "assay": "SASP mRNA (IL6, CXCL1, CXCL10, IL1B) in doxorubicin-aged mice, Example 22-6, Table 35", "format": "in vivo, mouse", "conditions": "untreated aged = 100%", "experimental": "(§2) Eight-week-old male C57BL6J mice (KRIBB Laboratory Animal Resource Center) were acclimated to the experimental environment for one week. Afterwards, the anticancer agent doxorubicin was administered intraperitoneally at a concentration of 10 mg/kg, inducing aging for more than 10 days. The aging-induced mice were randomly assigned to experimental and control groups. LX-403 was mixed with a 10% ethanol solution of PEG400 and administered orally at a concentration of 25 mg/kg or intradermally at a concentration of 1 μM for 21 days. LX-1801 was mixed in distilled water with 4% DMSO, 30% PEG300, and 5% Tween80 and administered intradermally at a concentration of 0.4 μM daily for 21 days. LX-2001 was mixed in PBS and administered intradermally at a concentration of 2 μM daily for 21 days. LX-2002 was mixed in distilled water with 4% DMSO, 30% PEG300, and 5% Tween80 and administered intradermally at a concentration of 2 μM daily for 21 days. […] LX-2005 was mixed in distilled water with 4% DMSO, 30% PEG300, and 5% Tween80 and administered intradermally at a concentration of 90 μM daily for 21 days. LX-2007 was mixed in distilled water with 4% DMSO, 30% PEG300, and 5% Tween80 and administered intradermally at a concentration of 90 μM daily for 21 days. […] LX-3002 was mixed in distilled water with 4% DMSO, 30% PEG300, and 5% Tween80 and administered orally at a concentration of 10 mg/kg daily for 21 days. […] LX-5411 was mixed in 5% phosphate-buffered saline (PBS) and administered orally at a concentration of 10 mg/kg daily for 21 days or intradermally at a concentration of 3 μM. LX-5701 was mixed in PBS and administered orally at a concentration of 360 mg/kg daily for 21 days. LX-6807 was mixed in saline and administered intraperitoneally at a concentration of 1 mg/kg daily for 21 days. The control group received only the solution in the same volume. After the end of drug administration, the methods described in each example below were performed.\nUsing cDNA synthesized in the same manner as in Example 7-6 of WO2023-085787 A1, qRT-PCR was performed and analyzed for senescence-associated secretory factors (SASPs) like IL6, CXCL1, CXCL10, IL1B, etc. […] The mRNA amount of each factor after aging induction was calculated as 100% and compared with the mRNA amount of each factor after LX-5701 treatment."}, "[2]": {"system": "doxorubicin-induced aged C57BL6J mice", "assay": "p16 and p21 mRNA in doxorubicin-aged mice, Example 22-2, Table 31", "format": "in vivo, mouse", "conditions": "untreated aged = 100%", "experimental": "as §2\nMice were sacrificed using the same method as in Example 7-2 of WO2023-085787 A1. RNA was extracted from organ tissues of each site, and cDNA synthesized was used for qRT-PCR and analysis. […] The mRNA amounts of p16 and p21 after aging induction were calculated as 100% and compared with the mRNA amounts of p16 and p21 after LX-5701 treatment."}, "[3]": {"system": "obesity-induced aged C57BL6J mice", "assay": "Serum IL6 and activin A (ELISA) in obesity-aged mice, Example 23-3, Table 43", "format": "in vivo, mouse", "conditions": "360 mg/kg oral daily for 21 days", "experimental": "15-week-old male C57BL6J mice (The Jackson Laboratory) were induced to obesity by a high-fat diet using the same method as in Example 9-1 WO2023-085787 A1. After acclimation to the experimental environment for one week, the mice were randomly assigned to experimental and control groups. […] LX-3002 was mixed in distilled water with 4% DMSO, 30% PEG300, and 5% Tween80 and administered orally at a concentration of 10 mg/kg daily for 21 days. LX-5701 was mixed in PBS and administered orally at a concentration of 360 mg/kg daily for 21 days. LX-6807 was mixed in saline and administered intraperitoneally at a concentration of 1 mg/kg daily for 21 days. The control group received only the solution in the same volume. After the end of drug administration, the methods described in each example below were performed.\nThe levels of IL6 and activin A, senescence-associated secretory factors (SASP), were measured in serum collected from mice using the same method as in Example 7-5 of WO2023-085787 A1 using an enzyme-linked immunosorbent assay (ELISA Kit, R&D Systems)."}, "[4]": {"conditions": "A549, supernatant from No Cells"}, "[5]": {"conditions": "A549, A549, supernatant from death-induced proliferating cells"}, "[6]": {"conditions": "A549, A549, supernatant from death-induced senescent cells"}}, "data": [{"smiles": "COC(=O)c1ccc([C@H]2c3[nH]c4ccccc4c3C[C@H](C(=O)OC)N2C(=O)CCl)cc1", "note": "[LX-405]", "values": [{"measurement": "Survival", "setting": "proliferating A549 cells; [4]", "result": "101.4 (±1.3) %"}, {"measurement": "viability at 30 µM", "setting": "proliferating A549 cells; [5]", "result": 98.6, "unit": "%"}, {"measurement": "viability at 30 µM", "setting": "proliferating A549 cells; [6]", "result": 105, "unit": "%"}, {"measurement": "Survival", "setting": "senescent A549 cells; [4]", "result": "98.2 (±2.8) %"}, {"measurement": "viability at 30 µM", "setting": "senescent A549 cells; [5]", "result": 78.8, "unit": "%"}, {"measurement": "viability at 30 µM", "setting": "senescent A549 cells; [6]", "result": 72.5, "unit": "%"}]}, {"smiles": "O=C1C2CCN(CC2)C1CNC(=O)C(F)(F)F", "note": "(stereo not shown) [LX-5701]", "values": [{"measurement": "CXCL1 mRNA (%), Liver", "setting": "[1]; Liver", "result": "68 (±14.8) %"}, {"measurement": "CXCL10 mRNA (%), Liver", "setting": "[1]; Liver", "result": "75 (±4.1) %"}, {"measurement": "IL1β mRNA (%), Liver", "setting": "[1]; Liver", "result": "73 (±3.5) %"}, {"measurement": "IL6 mRNA (%), Liver", "setting": "[1]; Liver", "result": "64 (±7.5) %"}, {"measurement": "CXCL1 mRNA (%), eWAT", "setting": "[1]; eWAT", "result": "74 (±4.7) %"}, {"measurement": "CXCL10 mRNA (%), eWAT", "setting": "[1]; eWAT", "result": "69 (±7.0) %"}, {"measurement": "IL1β mRNA (%), eWAT", "setting": "[1]; eWAT", "result": "56 (±11.2) %"}, {"measurement": "IL6 mRNA (%), eWAT", "setting": "[1]; eWAT", "result": "55 (±15.1) %"}, {"measurement": "p16 mRNA (%), Kidney", "setting": "[2]; Kidney", "result": "78 (±7.7) %"}, {"measurement": "p21 mRNA (%), Kidney", "setting": "[2]; Kidney", "result": "75 (±5.8) %"}, {"measurement": "p16 mRNA (%), Liver", "setting": "[2]; Liver", "result": "62 (±7.5) %"}, {"measurement": "p21 mRNA (%), Liver", "setting": "[2]; Liver", "result": "64 (±11.7) %"}, {"measurement": "p16 mRNA (%), eWAT", "setting": "[2]; eWAT", "result": "55 (±11.5) %"}, {"measurement": "p21 mRNA (%), eWAT", "setting": "[2]; eWAT", "result": "71 (±8.8) %"}, {"measurement": "Activin A", "setting": "[3]; untreated 100 (±7.5)", "result": "61.7 (±14.0) %"}, {"measurement": "IL6", "setting": "[3]; untreated 100 (±11.6)", "result": "53.9 (±15.4) %"}]}]}
